Experimental data published in PMC11645656, “MRGPRX4 mediates phospho-drug associated pruritus in a humanized mouse model” (Science translational medicine, 2024).
“And” between values parts separate entries of the source, which are not always exact repeats. Equal entries are not always repeated. Where two headings read alike, the source gives them in different places.

How the values were obtained:
[1] = test system: NP2-X4+ DRG neurons; assay: GCaMP6s calcium imaging of cultured NP2-X4+ DRG neurons; type: cell-based, mouse; conditions: 10 μM phospho-drugs; 1 mM CQ
Excerpt: Fig. 2. Phosphate monoester prodrugs induce itch in NP2-MRGPRX4+ mice through activating NP2 primary sensory neurons. (A) Mating strategy to generate NP2-X4+ mice. (B) In situ hybridization showing MRGPRX4 transcripts (magenta) in NP2-X4+ DRG as indicated by arrowheads (left) but not in littermate control NP2-WT (right). NP2 subpopulation accounts for 5% of total DRG neurons. DAPI, blue. Scale bar, 50 μm. […]. Data are expressed as mean ± SEM. *p< 0.05, **p< 0.01 and ***p< 0.001 by two-tailed unpaired Student’s t-test. ns = no statistical significance observed. (D and E) Traces of average (top, depicted as mean ± 95% confidence interval) and individual (bottom, reflected by the heatmap) calcium activity, measured by fluorescence intensity normalized to the baseline intensity (FT/F0) over time of NP2-X4+ (D) and NP2-WT (E) DRG neurons labelled with GCaMP6s (n = 110–150 neurons pooled from 3–7 independent culture vessels from 2–4 mice in each condition). 10 μM phospho-drugs and 1 mM CQ were added as indicated by the arrowheads. Neurons with FT/F0 > 1.5 after compound application were considered a positive responder. NP2-X4+: NP2-MRGPRX4+; DRG, dorsal root ganglia; CQ: chloroquine.
The procedures were performed following previously established protocols ([15]). Murine DRGs (from both male and female) were harvested from all spinal segments and digested in dispase (5 mg/ml) / type I collagenase (1 mg/ml) enzyme mix at 37 °C for an hour. Enzyme mix was replaced with complete DH10 media (90% DMEM/F12, 10% FBS, penicillin (100 units/ml), and streptomycin (100 μg/ml)) and gently triturated with 1 ml pipette tip until the media turned cloudy without visible tissue chunks. Dissociated tissues were filtered through a 70 μm filter and spun down 1250 rpm for 5 min at RT. Supernatant was removed and the cell pellet was resuspended in complete DH10 media. Cell suspension was then added on top of poly-D-lysine- and laminin-coated coverslips and sat for 1–2 h at 37°C. Complete DH10 media supplemented with NGF (50 ng/ml) was then added into the vessel. Neurons were allowed to recover overnight at 37°C for the next-day calcium imaging experiment.
Calcium imaging data was collected with a Nikon Eclipse TE 200 microscope. Time series GCaMP6 fluorescence intensity was acquired through the FITC/GFP channel. Before the imaging, cultured neurons were washed and equilibrated in CIB for 30 min at 37°C. In each trial, compounds (as indicated in the results) were added into the imaging chamber after a 30 s baseline GCaMP6 activity was collected. […] Neurons with GCaMP6 signal rose above 50% of the baseline intensity after compound application were counted as positive responders and the percentage of responding neurons was calculated. […]

[2] = molecular target: MRGPRX4 WT (S83) (Homo sapiens, UniProt Q96LA9, L83S); assay: Calcium mobilization assay (FLIPR), WT (S83) MRGPRX4 transiently expressed in HEK293T cells; type: cell-based; parameters: expressed in transfected cells; host or cells: HEK293T, transient; conditions: for EC50: WT (S83), Fig. 4E, unit not in the head, taken from Concentration (M) of the sheet and pEC50 [M] of Fig. 4E; for Calcium mobilization response (Fig. 4D dose-response) / calcium mobilization response (Fig. 3E and 3F dose-response): WT; for Calcium mobilization response (Fig. 4D dose-response): each cell one replicate; for Potency at S83- vs L83-MRGPRX4: calcium mobilization, compared with S83L (A17)
Sequence of MRGPRX4 WT (S83) (Q96LA9 whole entry L83S): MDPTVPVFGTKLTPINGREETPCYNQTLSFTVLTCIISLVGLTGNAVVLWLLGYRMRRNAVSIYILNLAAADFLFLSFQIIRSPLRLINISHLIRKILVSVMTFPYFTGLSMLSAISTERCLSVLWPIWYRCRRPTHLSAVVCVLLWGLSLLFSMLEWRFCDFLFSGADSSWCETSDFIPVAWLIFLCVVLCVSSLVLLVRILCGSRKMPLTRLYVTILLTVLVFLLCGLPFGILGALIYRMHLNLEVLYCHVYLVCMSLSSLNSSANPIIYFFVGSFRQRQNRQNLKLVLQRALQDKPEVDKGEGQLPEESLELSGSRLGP
Excerpt: Fig. 4. […] Hydrogen bond is shown as cyan dashed lines. […] Data are from three independent experiments, performed in triplicate. (E) pEC50 plots of various agonists toward S83- and L83-MRGPRX4 through calcium mobilization assay. […] Each data point represents an independent experiment, performed in triplicate. The extra sum-of-square F test was used to examine the difference in EC50 values. One-sided t-test was used for nateglinide. *p< 0.05, **p< 0.01 and ***p< 0.001. ns = no statistical significance. Both (D) and (E) are reported as the mean ± SEM. N.D.= no detectable response ≤ 100 μM.
HEK293 cells and MRGPRX4 stably expressed HEK293 cells were seeded in 100 μl culture media on 96-well plates at a density of 40,000 cells per well and incubated overnight. The next day, the media were replaced with a dye-loading solution from the FLIPR Calcium 5 assay kit (Molecular Devices), diluted in Hank's Balanced Salt Solution (HBSS) with 20 mM HEPES, pH 7.4. After 1 h of incubation at 37°C, cells were allowed to recover for 10 min in the dark at room temperature prior to performing intracellular calcium mobilization assay in a Flexstation-3 instrument with SoftMax®Pro 7.1 software (Molecular Devices). Serial concentrations of tested drugs were prepared in HBSS/HEPES solution at 3X concentration. […] Compounds were tested in triplicates and the signals were averaged. Responses were determined by subtracting the minimum signal (at the baseline before adding the drug) from the maximum signal (obtained after drug stimulation). Four-parameter logistic (4PL) curve fit was used to plot the dose-response curves. […] Both dose-response curve fitting and EC50s calculation are computed with GraphPad Prism software (version: 6.o or above).
To generate murine Mrgprs expressing cells, HEK293T cells (ATCC) were seeded on poly-D-lysine coated 96 well plate at 25,000 cells per well one day prior to transfection. HEK293T cells were transiently co-transfected with the mammalian expression plasmids carrying cDNA encoding the murine Mrgpr genes and plasmid inserted with cDNA encoding murine α-subunit of the heterotrimeric G15 protein (Gα15) in triplicates using Lipofectamine LTX reagents (Thermo Scientific). To generate WT, S83L, and alanine mutant MRGPRX4-expressing cells, HEK293T cells were seeded on poly-D-lysine coated 384 well plate at 12,000 cells per well one day prior to transfection. Mammalian expression plasmids pLX304 (vector from Addgene) carrying different MRGPRX4 coding sequences were transiently transfected into HEK293T cells in triplicates with Lipofectamine LTX reagents (Thermo Scientific). Intracellular calcium mobilization assays were performed after one day of transfection. Murine Mrgprs tested include Mrgpra1, Mrgpra2a, Mrgpra2b, Mrgpra3, Mrgpra4, Mrgpra6, Mrgpra9, Mrgpra10, Mrgpra11, Mrgpra12, Mrgpra14, Mrgprb5, Mrgprb6, Mrgprb10, Mrgprb11, and Mrgprc11. WT and mutant MRGPRX4 constructs tested include WT, S83L, R82A, R86A, R95A, W158A, Y250A, and Y254A.

Row | SMILES | Calcium response of NP2-X4+ neurons [1] | EC50 ([2]; read-out: EC50s (each well represents individual experiment)) | Calcium mobilization response (Fig. 4D dose-response) ([2]; 5.65e-9 M) | calcium mobilization response (Fig. 3E and 3F dose-response) ([2]; 4.12e-6 M) | Calcium mobilization response (Fig. 4D dose-response) ([2]; 4.12e-6 M) | calcium mobilization response (Fig. 3E and 3F dose-response) ([2]; 1.23e-5 M) | Potency at S83- vs L83-MRGPRX4 [2] | EC50 ([2]; EC50s (each well represents individual experiment)) | calcium mobilization response (Fig. 3E and 3F dose-response) ([2]; 4.57e-8 M) | calcium mobilization response (Fig. 3E and 3F dose-response) ([2]; 4.12e-7 M) | Calcium mobilization response (Fig. 4D dose-response) ([2]; 4.12e-7 M)
1 | O=C1NC(c2ccccc2)(c2ccccc2)C(=O)N1COP(=O)(O)O [Fosphenytoin] | strong calcium transients | 7.21e-07 M and 5.46e-06 M and 1.46e-06 M | -11.5543 | 76.9188 | 76.9188 | 82.4819 | improved potency at S83-MRGPRX4 |  |  |  | 
2 | CC(C)c1cccc(C(C)C)c1OCOP(=O)(O)O [Fospropofol] | strong calcium transients |  |  |  |  |  | improved potency at S83-MRGPRX4 | 2.8e-08 M and 4.03e-08 M and 1.9e-08 M | 59.0909 | 88.6023 | 88.6023
